For data set [1], the system named is Mycobacterium tuberculosis. The data set is described as follows: Antituberculosis activity against Mycobacterium tuberculosis. Type of data set: functional.
Data set [2] is described as follows: Tmax in mouse at 300 mg/kg, po. Details: dose 300 mg/kg, route oral. Type of data set: ADME, organism-based. The settings on record: in vivo.
Data set [3] is described as follows: (§1) Cmax in mouse serum at 300 mg/kg, po. Type of data set: ADME, organism-based. Details: dose 300 mg/kg, route oral. The settings on record: serum.
Data set [4] is described as follows: Half life in mouse serum at 300 mg/kg, po. The format is ADME, organism-based. Details: dose 300 mg/kg, route oral.
The test system of a further data set is Mus musculus. The data set is described as §1. The format is ADME, organism-based. Details: dose 300 mg/kg, route oral. The note with it: in vivo.

In brackets after ≈: the same amount, converted by molar mass.

`O=C(NCc1ccc(N2CCN(Cc3ccccc3)CC2)cc1)c1ccc([N+](=O)[O-])o1` had an MIC90 in data set [1] of 0.0125 µg/mL (≈ 0.0297 µM).

On to `O=C(c1ccc([N+](=O)[O-])o1)N1CCc2cc(N3CCSCC3)ccc2C1`, for which the MIC90 in data set [1] amounted to 0.4 µg/mL (≈ 1.07 µM).

Take `C=CCOC(=O)N1CCN(c2ccc(CNC(=O)c3ccc([N+](=O)[O-])o3)cc2)CC1`: in data set [1], the MIC90 was determined as 0.5 µg/mL (≈ 1.21 µM).

As for `CC(C)NC(=O)N1CCN(c2ccc(CNC(=O)c3ccc([N+](=O)[O-])o3)cn2)CC1`, the Tmax in data set [2] stood at 150 min. In addition, the peak concentration (Cmax) in data set [3] amounted to 22000 ng/mL. For the same compound, the half-life in data set [4] is 30 min. Also, in data set [1], the MIC90 was found to be 0.56 µg/mL (≈ 1.34 µM).

As for `CCCNC(=O)N1CCN(c2ccc(CNC(=O)c3ccc([N+](=O)[O-])o3)cc2)CC1`, in data set [2], the Tmax came out at 150 min. For the same compound, the maximum concentration (Cmax) in data set [3] came to 4800 ng/mL. In data set [4], the half-life was 90 min. In addition, in data set [1], the MIC90 was 0.2 µg/mL (≈ 0.481 µM).

For the compound `CC(C)(C)OC(=O)N1CCCN(c2ccc(CNC(=O)c3ccc([N+](=O)[O-])o3)cc2)CC1`, the Tmax in data set [2] turned out to be 30 min. In data set [3], this compound gave a maximum concentration (Cmax) of 280 ng/mL. The same compound gave a half-life in data set [4] of 450 min. For the same compound, the MIC90 in data set [1] is 0.1 µg/mL (≈ 0.225 µM).

Take `CCCCOC(=O)N1CCN(c2ccc(CNC(=O)c3ccc([N+](=O)[O-])o3)cc2)CC1`: the MIC90 in data set [1] was 0.05 µg/mL (≈ 0.116 µM).

Turning to `O=C(NCc1ccc(N2CCCN(Cc3ccccc3)CC2)cc1)c1ccc([N+](=O)[O-])o1`, the MIC90 in data set [1] amounted to 0.8 µg/mL (≈ 1.84 µM).

`CC(C)(C)OC(=O)N1CCN(c2ccc(CNC(=O)c3ccc([N+](=O)[O-])o3)cn2)CC1`: in data set [2], the Tmax is 30 min. The Cmax in data set [3] came to 1230 ng/mL. In data set [4], this compound gave a half-life of 138 min. In addition, the MIC90 in data set [1] is 0.05 µg/mL (≈ 0.116 µM).

`CCOC(=O)N1CCN(c2ccc(CNC(=O)c3ccc([N+](=O)[O-])o3)cc2)CC1`: the MIC90 in data set [1] was 0.0062 µg/mL (≈ 0.0154 µM).

For `CCOC(=O)N1CCCN(c2ccc(CNC(=O)c3ccc([N+](=O)[O-])o3)cc2)CC1`, the MIC90 in data set [1] worked out at 0.1 µg/mL (≈ 0.24 µM).

`CC(C)NC(=O)N1CCCN(c2ccc(CNC(=O)c3ccc([N+](=O)[O-])o3)cc2)CC1`: the Tmax in data set [2] turned out to be 30 min. Moreover, the concentration in data set [3] peaked (Cmax) at 7400 ng/mL. This compound showed a half-life in data set [4] of 120 min. For the same compound, the MIC90 in data set [1] came out at 0.8 µg/mL (≈ 1.86 µM).

In turn, `CC(C)NC(=O)N1CCN(c2ccc(CNC(=O)c3ccc([N+](=O)[O-])o3)cc2)CC1` showed an MIC90 in data set [1] of 0.8 µg/mL (≈ 1.93 µM).

For `CCOC(=O)N1CCN(c2ccc(CNC(=O)c3ccc([N+](=O)[O-])o3)cn2)CC1`, the Tmax in data set [2] was determined as 150 min. The compound further came in with a Cmax in data set [3] of 6560 ng/mL. The half-life in data set [4] is 42 min. The compound further returned an MIC90 in data set [1] of 0.05 µg/mL (≈ 0.124 µM).

In data set [1], `O=C(c1ccc([N+](=O)[O-])o1)N1CCc2cc(N3CCN(Cc4ccccc4)CC3)ccc2C1` came in with an MIC90 of 0.0062 µg/mL (≈ 0.0139 µM).

For `O=C(NCc1ccc(N2CCN(Cc3ccccc3)CC2)nc1)c1ccc([N+](=O)[O-])o1`, the time of peak concentration (Tmax) in data set [2] was found to be 30 min. Also, the peak level in data set [3] (Cmax) was 1470 ng/mL. In data set [4], the half-life is 78 min. In addition, the MIC90 in data set [1] came out at 0.0062 µg/mL (≈ 0.0147 µM).

`COC(=O)N1CCN(c2ccc(CNC(=O)c3ccc([N+](=O)[O-])o3)cc2)CC1` returned an MIC90 in data set [1] of 0.1 µg/mL (≈ 0.257 µM).

Take `CC(C)(C)OC(=O)N1CCN(c2ccc(CNC(=O)c3ccc([N+](=O)[O-])o3)cc2)CC1`: in data set [1], the MIC90 was determined as 0.025 µg/mL (≈ 0.0581 µM).

For `CC(C)COC(=O)N1CCN(c2ccc(CNC(=O)c3ccc([N+](=O)[O-])o3)cc2)CC1`, in data set [1], the MIC90 amounted to 0.05 µg/mL (≈ 0.116 µM).

As to `CN1CCN(c2ccc3c(c2)CCN(C(=O)c2ccc([N+](=O)[O-])o2)C3)CC1`, in data set [1], the MIC90 was 0.2 µg/mL (≈ 0.54 µM).

On to `Cl.O=C(c1ccc([N+](=O)[O-])o1)N1CCc2cc(N3CCN(Cc4ccccc4)CC3)ccc2C1`, for which the Tmax in data set [2] came to 30 min. The compound also registered a Cmax in data set [3] of 736 ng/mL. The half-life in data set [4] was 210 min.

As for `CN1CCN(c2ccc3c(c2)CCN(C(=O)c2ccc([N+](=O)[O-])o2)C3)CC1.Cl`, in data set [2], the Tmax worked out at 30 min. Also, the maximum concentration (Cmax) in data set [3] turned out to be 280 ng/mL. Moreover, the half-life in data set [4] is 120 min.

In the data set with Mus musculus, `Cl.O=C(NCc1ccc(N2CCN(Cc3ccccc3)CC2)cc1)c1ccc([N+](=O)[O-])o1` had a Cmax of 2.24 µg/mL.

Usually MIC90 stands for an inhibitory concentration at the 90% level, which refers to growth in some studies and to a panel of isolates in others. The Tmax is the time from dosing to the highest level. For orientation: Cmax means the maximum level reached in the sampled fluid or tissue. By half-life is commonly meant how long it takes for the measured level to halve.
